# Laboratory results published in ChEMBL document CHEMBL3885881, “DrugMatrix”.
# Species: Rattus norvegicus
# Assay: DrugMatrix - Regimen: Daily Repeat
# Format: toxicity, organism-based, Sprague-Dawley
# Set-up: regimen Daily Repeat, gender Male, age 6-8 weeks
# Conditions: in vivo, ip, 0 mg/kg, route intraperitoneal, dose level Control, vehicle 100 % SALINE; for ABSOLUTE BASOPHIL / ABSOLUTE EOSINOPHIL / ABSOLUTE LYMPHOCYTE / ABSOLUTE MONOCYTE / ABSOLUTE SEGMENTED NEUTROPHIL / BASOPHIL / EOSINOPHIL / ERYTHROCYTE COUNT / HEMATOCRIT / HEMOGLOBIN / LEUKOCYTE COUNT / LYMPHOCYTE / MEAN CORPUSCULAR HEMOGLOBIN / MEAN CORPUSCULAR HEMOGLOBIN CONCENTRATION / MEAN CORPUSCULAR VOLUME / MONOCYTE / NEUTROPHIL / NUCLEATED RED BLOOD CELLS / PLATELET COUNT: tissue Blood; for ALANINE AMINOTRANSFERASE / ALKALINE PHOSPHATASE / ASPARTATE AMINOTRANSFERASE / BLOOD UREA NITROGEN / CARBON DIOXIDE / CHLORIDE / CHOLESTEROL / CREATININE / GLUCOSE / LACTATE DEHYDROGENASE / LIPASE / PHOSPHORUS / POTASSIUM / SODIUM / TOTAL BILIRUBIN / TOTAL PROTEIN / URIC ACID: tissue Plasma
compound,measurement,setting,value
CC[C@H]1CN2CCc3cc(OC)c(OC)cc3[C@@H]2C[C@@H]1C[C@H]1NCCc2cc(OC)c(OC)cc21 [EMETINE],ABSOLUTE BASOPHIL,"72 h, time 3 day",0 CELLS/uL
same,ABSOLUTE EOSINOPHIL,"72 h, time 3 day",109.67 CELLS/uL
same,ABSOLUTE LYMPHOCYTE,"72 h, time 3 day",11168.33 CELLS/uL
same,ABSOLUTE MONOCYTE,"72 h, time 3 day",226.17 CELLS/uL
same,ABSOLUTE SEGMENTED NEUTROPHIL,"72 h, time 3 day",695.83 CELLS/uL
same,BASOPHIL,"72 h, time 3 day",0%
same,EOSINOPHIL,"72 h, time 3 day",0.83%
same,ERYTHROCYTE COUNT,"72 h, time 3 day",6.2 x10E6/uL
same,HEMATOCRIT,"72 h, time 3 day",37.68%
same,HEMOGLOBIN,"72 h, time 3 day",13.67 G/DL
same,LEUKOCYTE COUNT,"72 h, time 3 day",12.2 x10E3/uL
same,LYMPHOCYTE,"72 h, time 3 day",91.83%
same,MEAN CORPUSCULAR HEMOGLOBIN,"72 h, time 3 day",22.08 pg
same,MEAN CORPUSCULAR HEMOGLOBIN CONCENTRATION,"72 h, time 3 day",36.3 G/DL
same,MEAN CORPUSCULAR VOLUME,"72 h, time 3 day",60.77 fL
same,MONOCYTE,"72 h, time 3 day",1.83%
same,NEUTROPHIL,"72 h, time 3 day",5.5%
same,NUCLEATED RED BLOOD CELLS,"72 h, time 3 day",0 /100WBC
same,PLATELET COUNT,"72 h, time 3 day",755.67 x10E3/uL
same,ALANINE AMINOTRANSFERASE,"72 h, time 3 day",60.83 u/L
same,ALKALINE PHOSPHATASE,"72 h, time 3 day",392.5 u/L
same,ASPARTATE AMINOTRANSFERASE,"72 h, time 3 day",97 u/L
same,BLOOD UREA NITROGEN,"72 h, time 3 day",16.5 mg/dL
same,CARBON DIOXIDE,"72 h, time 3 day",29.83 mmol/L
same,CHLORIDE,"72 h, time 3 day",101.83 MEQ/L
same,CHOLESTEROL,"72 h, time 3 day",72.5 mg/dL
same,CREATININE,"72 h, time 3 day",0.28 mg/dL
same,GLUCOSE,"72 h, time 3 day",195.33 mg/dL
same,LACTATE DEHYDROGENASE,"72 h, time 3 day",240.33 u/L
same,LIPASE,"72 h, time 3 day",9.67 u/L
same,PHOSPHORUS,"72 h, time 3 day",12.47 mg/dL
same,POTASSIUM,"72 h, time 3 day",6.15 MEQ/L
same,SODIUM,"72 h, time 3 day",145.38 MEQ/L
same,TOTAL BILIRUBIN,"72 h, time 3 day",0.17 mg/dL
same,TOTAL PROTEIN,"72 h, time 3 day",6.7 G/DL
same,URIC ACID,"72 h, time 3 day",2.42 mg/dL
same,ABSOLUTE BASOPHIL,"120 h, time 5 day",0 CELLS/uL
same,ABSOLUTE EOSINOPHIL,"120 h, time 5 day",50 CELLS/uL
same,ABSOLUTE LYMPHOCYTE,"120 h, time 5 day",12777 CELLS/uL
same,ABSOLUTE MONOCYTE,"120 h, time 5 day",280.67 CELLS/uL
same,ABSOLUTE SEGMENTED NEUTROPHIL,"120 h, time 5 day",875.67 CELLS/uL
same,BASOPHIL,"120 h, time 5 day",0%
same,EOSINOPHIL,"120 h, time 5 day",0.5%
same,ERYTHROCYTE COUNT,"120 h, time 5 day",6.42 x10E6/uL
same,HEMATOCRIT,"120 h, time 5 day",39.13%
same,HEMOGLOBIN,"120 h, time 5 day",14.17 G/DL
same,LEUKOCYTE COUNT,"120 h, time 5 day",13.98 x10E3/uL
same,LYMPHOCYTE,"120 h, time 5 day",90.83%
same,MEAN CORPUSCULAR HEMOGLOBIN,"120 h, time 5 day",22.1 pg
same,MEAN CORPUSCULAR HEMOGLOBIN CONCENTRATION,"120 h, time 5 day",36.2 G/DL
same,MEAN CORPUSCULAR VOLUME,"120 h, time 5 day",61.07 fL
same,MONOCYTE,"120 h, time 5 day",2%
same,NEUTROPHIL,"120 h, time 5 day",6.67%
same,NUCLEATED RED BLOOD CELLS,"120 h, time 5 day",0 /100WBC
same,PLATELET COUNT,"120 h, time 5 day",838.67 x10E3/uL
same,ALANINE AMINOTRANSFERASE,"120 h, time 5 day",56.5 u/L
same,ALKALINE PHOSPHATASE,"120 h, time 5 day",316.5 u/L
same,ASPARTATE AMINOTRANSFERASE,"120 h, time 5 day",131 u/L
same,BLOOD UREA NITROGEN,"120 h, time 5 day",14.33 mg/dL
same,CARBON DIOXIDE,"120 h, time 5 day",29.83 mmol/L
same,CHLORIDE,"120 h, time 5 day",100.5 MEQ/L
same,CHOLESTEROL,"120 h, time 5 day",65.83 mg/dL
same,CREATININE,"120 h, time 5 day",0.23 mg/dL
same,GLUCOSE,"120 h, time 5 day",268.83 mg/dL
same,LACTATE DEHYDROGENASE,"120 h, time 5 day",343 u/L
same,LIPASE,"120 h, time 5 day",9.33 u/L
same,PHOSPHORUS,"120 h, time 5 day",13.95 mg/dL
same,POTASSIUM,"120 h, time 5 day",5.37 MEQ/L
same,SODIUM,"120 h, time 5 day",146.53 MEQ/L
same,TOTAL BILIRUBIN,"120 h, time 5 day",0.12 mg/dL
same,TOTAL PROTEIN,"120 h, time 5 day",6.37 G/DL
same,URIC ACID,"120 h, time 5 day",1.97 mg/dL
same,ABSOLUTE BASOPHIL,"[…], time 14 day",0 CELLS/uL
same,ABSOLUTE EOSINOPHIL,"[…], time 14 day",111.67 CELLS/uL
same,ABSOLUTE LYMPHOCYTE,"[…], time 14 day",12370.33 CELLS/uL
same,ABSOLUTE MONOCYTE,"[…], time 14 day",653.33 CELLS/uL
same,ABSOLUTE SEGMENTED NEUTROPHIL,"[…], time 14 day",1414.67 CELLS/uL
same,BASOPHIL,"[…], time 14 day",0%
same,EOSINOPHIL,"[…], time 14 day",0.67%
same,ERYTHROCYTE COUNT,"[…], time 14 day",6.03 x10E6/uL
same,HEMATOCRIT,"[…], time 14 day",36.65%
same,HEMOGLOBIN,"[…], time 14 day",13.4 G/DL
same,LEUKOCYTE COUNT,"[…], time 14 day",14.55 x10E3/uL
same,LYMPHOCYTE,"[…], time 14 day",85.33%
same,MEAN CORPUSCULAR HEMOGLOBIN,"[…], time 14 day",22.27 pg
same,MEAN CORPUSCULAR HEMOGLOBIN CONCENTRATION,"[…], time 14 day",36.58 G/DL
same,MEAN CORPUSCULAR VOLUME,"[…], time 14 day",60.85 fL
same,MONOCYTE,"[…], time 14 day",4.5%
same,NEUTROPHIL,"[…], time 14 day",9.5%
same,NUCLEATED RED BLOOD CELLS,"[…], time 14 day",0 /100WBC
same,PLATELET COUNT,"[…], time 14 day",942 x10E3/uL
same,ALANINE AMINOTRANSFERASE,"[…], time 14 day",53.33 u/L
same,ALKALINE PHOSPHATASE,"[…], time 14 day",293.67 u/L
same,ASPARTATE AMINOTRANSFERASE,"[…], time 14 day",96.83 u/L
same,BLOOD UREA NITROGEN,"[…], time 14 day",15.5 mg/dL
same,CARBON DIOXIDE,"[…], time 14 day",32.17 mmol/L
same,CHLORIDE,"[…], time 14 day",101.33 MEQ/L
same,CHOLESTEROL,"[…], time 14 day",64 mg/dL
same,CREATININE,"[…], time 14 day",0.25 mg/dL
same,GLUCOSE,"[…], time 14 day",178.67 mg/dL
same,LACTATE DEHYDROGENASE,"[…], time 14 day",179.5 u/L
same,LIPASE,"[…], time 14 day",9.17 u/L
same,PHOSPHORUS,"[…], time 14 day",10.88 mg/dL
same,POTASSIUM,"[…], time 14 day",5.91 MEQ/L
same,SODIUM,"[…], time 14 day",145.68 MEQ/L
same,TOTAL BILIRUBIN,"[…], time 14 day",0.2 mg/dL
same,TOTAL PROTEIN,"[…], time 14 day",6.38 G/DL
same,URIC ACID,"[…], time 14 day",1.12 mg/dL
